In patent US20240024262A1, “USE OF VALERIC ACID IN PREPARATION OF DRUG FOR PREVENTING AND TREATING DIABETES” (Harbin Medical University, priority 2022, published 2024):

Tests used:
[1] = test system: High-fat fed C57BL6/J mice; experiment: High-fat fed C57BL/6J mice, valeric acid gavage: body weight, food intake, blood glucose homeostasis (OGTT); assay type: in vivo
From the text: In an animal experiment of high-fat model mice at a first stage, 6-8-week-old male C57BL/6J mice without specific pathogens (SPF grade) are firstly purchased from Liaoning Changsheng Biotechnology Co., Ltd., Experimental animal feeds are ordered from Beijing keaoxieli Feed Co., Ltd., including a mouse AIN-93M maintenance feed and a high-fat feed with a fat energy supply ratio of 45%; the nutrient compositions of the two feeds are in accordance with a rodent experimental animal feed formula recommended by U.S. Department of agriculture; and the AIN-93M maintenance feed is stored at a room temperature, and the high-fat feed with the energy supply ratio of 45% is stored at the low temperature of −20° C.
The animal experimental research was implemented in accordance with the rules and regulations required by Experimental Animal Management Committee of Harbin Medical University, and animals were raised in a laboratory of Clean Experimental Animal Center of School of Public Health of Harbin Medical University. The laboratory conditions are as follows: a temperature is 21.0 (±1.5) degrees Celsius, a relative humidity is 50 (±5)%, lighting is alternately performed for 12:12 hours by using a fluorescent lamp, the feed is freely taken, and distilled water is freely drunk. After being received, 6-8-week-old C57BL6/J mice as a kind of SPF experimental animals were fed in a single cage, and were arranged to freely drink the distilled water and uptake an animal feed for a week of adaptive feeding. Subsequently, the mice were weighed and randomly divided into 4 experimental groups according to the weights of the mice; and the 4 experimental groups were fed with the AIN-93M maintenance feed and the 45% high-fat feed respectively, and were treated with phosphate buffer salt solution (PBS) and different metabolite solutions by oral gavage. […]
During the feeding period of experimental animals, a scattered food amount and a leftover food amount of mice were weighed with an electronic scale and recorded and fresh feeds were changed every day, and a daily food intake was calculated. […] The weights of the mice were weighed and recorded once a week, and a clean animal bedding subjected to high-pressure disinfection was replaced. […] According to conversion of oral and intravenous doses in Pharmacological Experimental Methodology edited by Shuyun Xu and an equivalent dose ratio of rats and mice, a dose of the valeric acid is finally determined as 75 mg/kg which is approximately equal to ⅛ of a half lethal dose of the valeric acid, meeting a safety range in toxicology. […]

[2] = test system: cell proliferation and differentiation pathway; experiment: WB and ELISA of classical proteins in a cell proliferation and differentiation pathway in mouse pancreatic tissues; assay type: in vivo, mice
Method: During the subsequent test, in order to observe pathological morphologies of animal tissues, paraffin sections of mouse tissues were made and subjected to HE staining, immunohistochemical staining and immunofluorescence staining. Also, mouse pancreatic tail tissues in a valeric acid intervention group and a control group were taken out from the −80° C. refrigerator and underwent TMT labeled quantitative proteome detection of the animal tissues, and differential proteins were subjected to a Western Blot test and a real-time fluorescence quantitative polymerase chain reaction (QRT PCR) test for the animal tissues to verify test results.

[3] = 8 weeks of intervention, HF-V vs HF-PBS control group

SMILES: CCCCC(=O)O [valeric acid]
- areas under OGTT-2h blood glucose curves [1, 3]: significantly lower
- fasting blood glucose [1, 3]: significantly lower
- fasting insulin contents [1, 3]: significantly lower
- weights of mice ([1]; valeric acid 75 mg/kg/d gavage (as sodium valerate), vs HF-PBS group, after the sixth week): significantly lower
- expression level of ERK1/2 [2]: significantly increased
- expression level of FoxO1A [2]: significantly increased
- expression level of MafA [2]: significantly increased
- expression level of Nkx6.1 [2]: significantly increased
- expression level of PDX1 [2]: significantly increased
- expression level of p-ERK1/2 [2]: significantly increased
